# From publication PMC6864590, “Planar Cell Polarity Effector Proteins Inturned and Fuzzy Form a Rab23 GEF Complex” (Current Biology, 2019)
# Where a chain is given by its changes, count along the chain named.
# Assays:
# Rab23 [1] = biological target: T1, Rab23 (Homo sapiens, UniProt Q9ULC3, M12K); assay: radiolabelled nucleotide binding, GST pull-down; conditions: labelled compound; pH 6.8
# T1 construct: hexahistidine-GST-tagged (pFAT2), expressed in E. coli BL21(DE3) pRIL, Ni-NTA purified, tags kept
# T1 sequence (Q9ULC3 1-237 M12K limits assumed): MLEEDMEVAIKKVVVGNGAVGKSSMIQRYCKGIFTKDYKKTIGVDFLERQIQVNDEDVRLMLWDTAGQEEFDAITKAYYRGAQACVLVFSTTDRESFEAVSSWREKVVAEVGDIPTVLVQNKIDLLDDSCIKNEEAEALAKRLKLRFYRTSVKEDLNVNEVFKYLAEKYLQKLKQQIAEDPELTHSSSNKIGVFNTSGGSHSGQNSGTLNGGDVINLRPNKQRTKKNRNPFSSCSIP
# Rab23 [2] = biological target: T2, Rab23 (Homo sapiens, UniProt Q9ULC3, N121I); assay: radiolabelled nucleotide binding, GST pull-down; conditions: labelled compound; pH 6.8
# T2 construct: hexahistidine-GST-tagged (pFAT2), expressed in E. coli BL21(DE3) pRIL, Ni-NTA purified, tags kept
# T2 sequence (Q9ULC3 1-237 N121I limits assumed): T1 sequence (Q9ULC3 1-237 M12K limits assumed) with K12M, N121I
# Rab23 [3] = biological target: T3, Rab23 (Homo sapiens, UniProt Q9ULC3, C85R); assay: radiolabelled nucleotide binding, GST pull-down; conditions: labelled compound; pH 6.8
# T3 construct: hexahistidine-GST-tagged (pFAT2), expressed in E. coli BL21(DE3) pRIL, Ni-NTA purified, tags kept
# T3 sequence (Q9ULC3 1-237 C85R limits assumed): T1 sequence (Q9ULC3 1-237 M12K limits assumed) with K12M, C85R
# Rab23 [4] = biological target: T4, Rab23 (Homo sapiens, UniProt Q9ULC3); assay: [3H]-GDP release GEF endpoint assay, glutathione-Sepharose capture; assay type: binding; conditions: labelled compound; Intu-Fuz GEF, Mg-GTP, pH 6.8, 30°C
# T4 construct: hexahistidine-GST-tagged (pFAT2), expressed in E. coli BL21(DE3) pRIL, Ni-NTA purified, tags kept
# T4 sequence (Q9ULC3 1-237 limits assumed): T1 sequence (Q9ULC3 1-237 M12K limits assumed) with K12M
# Rab38 = biological target: T5, Rab38 (Homo sapiens, UniProt P57729); assay: as above; assay type: binding; conditions: labelled compound; Hps1-Hps4 GEF, Mg-GTP, pH 6.8, 30°C
# T5 construct: GST-tagged (pFAT2), expressed in E. coli BL21(DE3) pRIL, Ni-NTA purified
# T5 sequence (P57729 1-211): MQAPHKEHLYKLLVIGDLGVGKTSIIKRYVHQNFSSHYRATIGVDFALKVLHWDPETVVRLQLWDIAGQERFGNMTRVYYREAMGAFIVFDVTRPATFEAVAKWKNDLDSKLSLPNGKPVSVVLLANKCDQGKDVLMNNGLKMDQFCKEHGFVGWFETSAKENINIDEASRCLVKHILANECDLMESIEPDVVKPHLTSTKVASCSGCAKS
# Rab32 = biological target: T6, Rab32 (Homo sapiens, UniProt Q13637); assay: as above; assay type: binding; conditions: labelled compound; Hps1-Hps4 GEF, Mg-GTP, pH 6.8, 30°C
# T6 construct: GST-tagged (pFAT2), expressed in E. coli BL21(DE3) pRIL, Ni-NTA purified
# T6 sequence (Q13637 2-225): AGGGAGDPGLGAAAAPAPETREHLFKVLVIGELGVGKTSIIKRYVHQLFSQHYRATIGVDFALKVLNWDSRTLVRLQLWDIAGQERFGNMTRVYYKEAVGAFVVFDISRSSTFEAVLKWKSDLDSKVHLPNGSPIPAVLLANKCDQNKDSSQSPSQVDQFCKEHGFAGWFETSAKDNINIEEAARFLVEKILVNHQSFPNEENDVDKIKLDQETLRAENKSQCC
# Rab7 = biological target: T7, Rab7 (Homo sapiens, UniProt P51149); assay: as above; assay type: binding; conditions: labelled compound; Mon1-Ccz1 GEF, Mg-GTP, pH 6.8, 30°C
# T7 construct: gene RAB7A; GST-tagged (pFAT2), expressed in E. coli BL21(DE3) pRIL, Ni-NTA purified
# Rab23 [5] = biological target: T3, Rab23; assay: basal GTP hydrolysis endpoint, charcoal assay; assay type: biochemical; conditions: labelled compound; 30°C, 60 min, no GAP
# Rab23 [6] = biological target: T1, Rab23; assay: basal GTP hydrolysis endpoint, charcoal assay; assay type: biochemical; conditions: labelled compound; 30°C, 60 min, no GAP
# Rab23 [7] = biological target: T4, Rab23; assay: basal GTP hydrolysis endpoint, charcoal assay; assay type: biochemical; conditions: labelled compound; 30°C, 60 min, no GAP
# Rab23 [8] = biological target: T2, Rab23; assay: basal GTP hydrolysis endpoint, charcoal assay; assay type: biochemical; conditions: labelled compound; 30°C, 60 min, no GAP
# T7 sequence (P51149 2-207): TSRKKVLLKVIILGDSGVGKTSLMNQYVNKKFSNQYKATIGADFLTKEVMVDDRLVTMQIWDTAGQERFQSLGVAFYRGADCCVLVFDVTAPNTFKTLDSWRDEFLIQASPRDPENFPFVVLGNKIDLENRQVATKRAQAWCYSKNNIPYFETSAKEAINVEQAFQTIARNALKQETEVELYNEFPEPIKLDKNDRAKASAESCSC
Compound,GDP binding (Rab23 [1]),GDP binding (Rab23 [2]),GDP binding (Rab23 [3]),GDP-GTP exchange (pmol) (Rab23 [4]),GDP-GTP exchange (pmol) (Rab38),GDP-GTP exchange (pmol) (Rab32),GDP-GTP exchange (pmol) (Rab7),GTP hydrolysis (Rab23 [5]),GTP hydrolysis (Rab23 [6]),GTP hydrolysis (Rab23 [7]),GTP hydrolysis (Rab23 [8])
Nc1nc2c(ncn2[C@@H]2O[C@H](COP(=O)(O)OP(=O)(O)O)[C@@H](O)[C@H]2O)c(=O)[nH]1 [GDP],Both Rab23^N121I and the two disease-associated mutants have reduced GDP-binding properties (Figure S3G),Both Rab23^N121I and the two disease-associated mutants have reduced GDP-binding properties (Figure S3G),Both Rab23^N121I and the two disease-associated mutants have reduced GDP-binding properties (Figure S3G),Intu-Fuz complexes show specific GEF activity toward Rab23,"comparable to the Rab7 and Rab32/38-specific GEFs Mon1-Ccz1 and Hps1-Hps4, respectively (Figure 1D)","comparable to the Rab7 and Rab32/38-specific GEFs Mon1-Ccz1 and Hps1-Hps4, respectively (Figure 1D)","comparable to the Rab7 and Rab32/38-specific GEFs Mon1-Ccz1 and Hps1-Hps4, respectively (Figure 1D)",,,,
Nc1nc2c(ncn2[C@@H]2O[C@H](COP(=O)(O)OP(=O)(O)OP(=O)(O)O)[C@@H](O)[C@H]2O)c(=O)[nH]1 [GTP],,,,,,,,show an increased rate of basal GTP-hydrolysis (Figure S3H),show an increased rate of basal GTP-hydrolysis (Figure S3H),show an increased rate of basal GTP-hydrolysis (Figure S3H),show an increased rate of basal GTP-hydrolysis (Figure S3H)
